The nature of data set [1]: Toxicity in rat RBL2H3 cells. The data set is classed as cell-based, RBL-2H3. To be noted: read-out: MTD.
For data set [2], the system named is RBL-2H3. Kind of data set: Inhibition of rat RBL2H3 […] assessed as reduction of beta hexasaminidase release. The data set is classed as functional, cell-based.
Data set [3] relates to RBL-2H3. Kind of data set: Inhibition of rat RBL2H3 […] assessed as reduction of beta hexasaminidase release at 25 uM. The data set is classed as functional.
In data set [4] the test system is RBL-2H3. The data set is described as follows: Inhibition of rat RBL2H3 […] assessed as reduction of beta hexasaminidase release at 10 uM. It counts as functional.

As usually defined, the IC50 is the concentration that inhibits the measured activity by half. Broadly, the inhibition is the drop in the measured response relative to a control, in per cent. On to `CCCCCCCCCCCCCCCCOC(=O)C[n+]1csc(CCO)c1C`, for which the MNTC in data set [1] is 50 µM. Further, the IC50 in the data set on RBL-2H3 [2] was 5.5 µM. Further, the inhibition at 25 µM in the data set on RBL-2H3 [3] was found to be 93%.
As to `CCCCCCCCCCCCCCCCNc1c2c(nc3c(C)cc(C)cc13)CC(C)(C)CC2=O`, the inhibition at 25 µM with RBL-2H3 [3] came to 7%.
Same read-out and setting: as for `CCCCCCCCCCCCCCCCCC(=O)Nc1c(C)c(CC)nc2ccccc12`, the figure is 10%.
As for `CCCCCCCCCCCCCCCCOP(=O)([O-])OC1CC2CCC(C1)[N+]2(C)C` (stereo not drawn), the MNTC in data set [1] was 25 µM. Moreover, the half-maximal inhibitory concentration (IC50) in the data set on RBL-2H3 [2] was determined as 5.7 µM. For the same molecule, the inhibition at 10 µM with RBL-2H3 [4] is 82%.
Taken in the same sequence, the figures for `CCCCCCCCCCCCCCCCOP(=O)([O-])OCC[N+](C)(CC)CC` were 50 µM, 4.4 µM and 88%.
Regarding `CCCCCCCCCCCCCCCCCCOC[C@H](COP(=O)([O-])OCC[N+](C)(C)C)OC` [(R)-EDELFOSINE], the MNTC in data set [1] is 25 µM. Further, the IC50 in the data set with RBL-2H3 [2] turned out to be 7.1 µM. For the same molecule, the inhibition at 25 µM with RBL-2H3 [3] turned out to be 79%.
Consider `CCCCCCCCCCCCCCCCSCC(COC)COP(=O)([O-])OCC[N+](C)(C)C` (stereo not drawn) [ILMOFOSINE], for which, in data set [1], the MNTC stood at 50 µM. In the data set with RBL-2H3 [2], the IC50 is 6.4 µM. Further, in the data set on RBL-2H3 [4], the inhibition at 10 µM was 84%.
Taken in the same sequence, the figures for `CCCCCCCCCCCCCCCCOP(=O)([O-])OCC[N+](C)(C)C` [MILTEFOSINE] were 25 µM, 4.6 µM and 87%.
For the molecule `CCCCCCCCCCCCCCCCCCOP(=O)([O-])OC1CC[N+](C)(C)CC1` [PERIFOSINE], the MNTC in data set [1] is 25 µM. Further, the half-inhibitory concentration (IC50) in the data set with RBL-2H3 [2] was determined as 5 µM. The inhibition at 10 µM with RBL-2H3 [4] was determined as 88%.

(Values after ChEMBL document CHEMBL1165854, “Computational screening for membrane-directed inhibitors of mast cell activation” (Eur J Med Chem, 2010).)
